Test results from ChEMBL document CHEMBL1944623, “Synthesis, characterization and antiamoebic activity of some hydrazone and azole derivatives bearing pyridyl moiety as a promising heterocyclic scaffold” (Eur J Med Chem, 2012).

What was measured:
Entamoeba histolytica = test: Antiameobic activity against Entamoeba histolytica HM-1:IMSS after 72 hrs using trypan blue staining method; assay type: functional, organism-based
MCF7 = test: Cytotoxicity against human MCF7 cells assessed as cell viability after 48 hrs by MTT assay; assay type: cell-based; settings: MCF7, 48 h

Row | Compound | IC50 (Entamoeba histolytica) [µM] | Activity (Entamoeba histolytica) | IC50 (MCF7) [µM]
1 | CC(C)c1ccc(/C=N/NC(=O)c2ccncc2)cc1 | 3.74 | – | –
2 | c1ccc(Nc2nnc(-c3ccncc3)s2)cc1 | 4.43 | – | –
3 | COc1ccc(/C=N/NC(=O)c2ccncc2)cc1 | 0.39 | Dose-dependent effect | > 250
4 | Sc1nnc(-c2ccncc2)n1-c1ccccc1 | 0.16 | Dose-dependent effect | > 250
5 | S=c1[nH]nc(-c2ccncc2)o1 | 0.558 | Dose-dependent effect | > 250
6 | Cc1ncc([N+](=O)[O-])n1CCO [METRONIDAZOLE] | – | – | > 250
7 | O=C(N/N=C/c1cccc(Cl)c1)c1ccncc1 [N'-(3-CHLOROBENZYLIDENE)ISONICOTINOHYDRAZIDE] | 12.1 | – | –
8 | CN(C)c1ccc(/C=N/NC(=O)c2ccncc2)cc1 [N'-(4-DIMETHYLAMINOBENZYLIDENE)ISONICOTINOHYDRAZIDE] | 5.55 | – | –
9 | Cc1ccc(/C=N/NC(=O)c2ccncc2)cc1 [N'-(4-METHYLBENZYLIDENE)ISONICOTINOHYDRAZIDE] | 0.13 | Dose-dependent effect | > 250
10 | O=C(N/N=C/c1ccc([N+](=O)[O-])cc1)c1ccncc1 [N'-(4-NITROBENZYLIDENE)ISONICOTINOHYDRAZIDE] | 0.37 | Dose-dependent effect | > 250
11 | O=C(N/N=C/c1ccccc1)c1ccncc1 [N'-BENZYLIDENE ISONICOTINOHYDRAZIDE] | 3.84 | – | –
12 | O=C(N/N=C/c1ccccc1O)c1ccncc1 [SALINAZID] | 4.14 | – | –
